# Reference: the supplement of paper PMC5770543
# ± gives the standard deviation.
# Key:
# [1] = system: Plasmodium falciparum 3D7; test: EC50 growth inhibition (60 h, SYBR Green); settings: stage: ring-stage start
# [2] = system: Plasmodium falciparum 3D7; test: % inhibition of schizont-to-ring transition vs DMSO; higher = more inhibition
# Summary of the method: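 Tightly synchronised P. falciparum schizonts (about 40–42 hours post-invasion, 1% parasitemia, 2.5% hematocrit, AlbuMAX-supplemented RPMI) were exposed to compound at 1, 3 or 10 µM, with vehicle and positive controls. Cells were glutaraldehyde-fixed, Triton-permeabilised, stained with Hoechst 33342 and counted by flow cytometry (at least 100,000 events). Schizont-to-ring transition inhibition is new ring formation relative to vehicle controls, averaged over three experiments.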
# [3] = system: Toxoplasma gondii RH tachyzoites; test: % growth inhibition vs DMSO (48 h luciferase); higher = more inhibition; settings: 10 µM;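 further: tested in triplicate wells of 96-well plates on confluent HFF monolayers, with 1% DMSO wells as negative control in four replicates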
Compound,EC50 growth inhibition [1] [nM],% inhibition of schizont-to-ring transition ([2]; 1 µM) [%],% inhibition of schizont-to-ring transition ([2]; 3 µM) [%],% inhibition of schizont-to-ring transition ([2]; 10 µM) [%],% growth inhibition [3] [%]
c1ccc2cc3c(Nc4ccc(N5CCOCC5)cc4)ccnc3cc2c1,2510,36.9,52.5,60.8,60.2 ± 14
CC(C)(C)c1ccc(C2CC3=Nc4ccccc4N(C(=O)c4ccccc4Cl)C(c4ccc(F)cc4)C3=C(O)C2)cc1 (stereo not drawn),3410,< 0,5.12,41.6,68.4 ± 10
Cc1ccc2cc3c(N)c4c(C)ccc(C)c4nc3nc2c1,432,29,72.1,79.8,56.3 ± 6.5
Cc1[nH]c(-c2ccc(F)cc2)cc1C(=O)NC1CCN(Cc2ccccc2)CC1,580,25.3,47,64.1,44.1 ± 26
CCCCN(CCCC)S(=O)(=O)c1ccc(NC(=O)c2ccco2)cc1,1530,20,26.6,50.7,74.8 ± 2.1
COc1cc(OC)cc(N2C(=O)N(Cc3ccc(C(C)(C)C)cc3)c3ccccc3S2(=O)=O)c1,3500,13.8,15.2,47.7,57.3 ± 12
CCOC(=O)c1cnc2c(C)cc(C)cc2c1Nc1ccc(OC)c(OC)c1,6690,14.7,32.9,45.1,54.2 ± 2.2
CCOc1ccc2c(c1)CN(Cc1ccc(Cl)cc1)CO2,3960,< 0,11.2,31.5,24.6 ± 13
CCN1CCN(c2cc(C)c3cc(NC(=O)c4ccc(OC)c(OC)c4)ccc3n2)CC1,814,21.3,45.6,63.3,56.5 ± 4.2
CCCCc1ccc(NS(=O)(=O)c2cc3c4c(c2)CCN4C(=O)CC3)cc1,–,12,12.8,34.4,36.5 ± 32
N#Cc1nc(Cc2cccc3ccccc23)oc1N1CCN(C(c2ccccc2)c2ccccc2)CC1,5260,21.5,27.3,52.8,44.8 ± 8.8
OC1CCCCC1C1(NC(=S)Nc2ccccc2)CCCCC1 (stereo not drawn),1510,23.3,45.7,53.4,64 ± 2.9
COc1cccc(C=Cc2nc(=O)c3ccccc3o2)c1OC,317,34.9,40.3,49.7,70.48 ± 0.68
Cc1ccc(-c2cc3c(SCC(=O)Nc4cc(C(F)(F)F)ccc4Cl)nccn3n2)cc1,2140,23.9,24.5,30.8,48.6 ± 19
COc1cc(SC)ccc1C(=O)N1CCCC(C)C1 (stereo not drawn),3240,0.295,< 0,12.1,33.1 ± 4.9
CCOc1cc(Br)c(C(C)NC(=O)c2cccc(OC)c2)cc1OCC (stereo not drawn),427,29.1,67.8,78,34.7 ± 18
Oc1ccccc1CNCC12CC3CC(CC(C3)C1)C2,96.1,64,64.7,67.1,52.8 ± 12
CCOc1ccc(C2N(C)c3ccccc3N2C)cc1,5840,15.8,20.8,40.5,49.6 ± 43
O=C(Nc1ccccc1O)c1ccc(-c2ccc(Cl)cc2Cl)o1,1670,28.6,26.9,48,23.8 ± 5.9
COc1ccc(C=C2SC(=N)N(c3ccccc3OC)C2=O)cc1,1370,19.9,35.6,49.7,58.7 ± 3.4
Cc1cc(Nc2ccc(Cl)cc2)n2nc(C(F)(F)F)nc2n1,56.2,52.9,59.3,58.4,62.7 ± 3.6
O=C(NCc1ccco1)C1CCN(S(=O)(=O)c2ccc(Br)cc2)CC1,397,14.5,30.4,54.8,52.8 ± 11
Cc1cccc(-n2ncc3c(O)nc(-n4nc(C)cc4NC(=O)c4cc5ccccc5o4)nc32)c1,–,16.7,23.7,27.8,30.2 ± 52
CCOC(=O)c1c[nH]c2c(CC)cccc2c1=O,3280,28.5,28.8,40.9,29.3 ± 36
CCOC(=O)c1cnc2c(C)cccc2c1Nc1ccc(C(C)=O)cc1,550,28.3,45.9,51.5,79.3 ± 2.5
CCCCOc1ccc(C(=O)Nc2cc(C)on2)cc1,5760,4.53,20.6,35.9,< 0

Compound,EC50 growth inhibition [1] [nM],% inhibition of schizont-to-ring transition ([2]; 1 µM) [%],% inhibition of schizont-to-ring transition ([2]; 3 µM) [%],% inhibition of schizont-to-ring transition ([2]; 10 µM) [%],% growth inhibition [3] [%]
CC(C)(C)c1ccc(C(=O)Nc2c3c(nn2-c2cccc(Cl)c2)CSC3)cc1,–,15.4,19.9,32.6,46.7 ± 4.1
CCOc1ccc(Nc2ccnc3cc(Cl)ccc23)cc1,3740,23.3,27.2,30,64.1 ± 7.2
O=C(Nc1ccc(C23CC4CC(CC(c5ccccc5)(C4)C2)C3)cc1)c1cccs1,7300,17.5,21.8,42.3,76.8 ± 7.4
O=C1CC(O)(C(F)(F)C(F)(F)F)Oc2ccccc21 (stereo not drawn),3000,5.46,15.3,47.7,65.3 ± 2.5
CCOC(=O)c1cnc2ccc(OC)cc2c1Nc1ccc(N2CCN(C)CC2)cc1,2980,46.5,63.7,78.1,24.9 ± 43
Cc1cc(C)cc(Nc2cc(C)nc3nc(C(F)(F)F)nn23)c1,56.8,46.6,56.5,59.8,53.7 ± 4
Cc1ccc(-c2cc3c(nn2)-c2ccccc2C3=O)cc1,214,33.1,51.8,59.3,< 0
CC(C)CCNCC(O)Cn1c2ccccc2c2ccccc21 (stereo not drawn),520,9.61,49.4,71.7,77.4 ± 2.5
CCOc1c(Br)cc(C2C(C(=O)OC)=CN(C)C=C2C(=O)OC)cc1OC,480,49.6,75.9,79.6,70.4 ± 17
CCOC(=O)c1cnc2ccc(CC)cc2c1O,482,49.9,61.3,62.8,78.7 ± 3.3
CCCN(CCC)CCCNC(=O)c1cc2c(-c3ccc(OC)c(OC)c3)nn(C)c2s1,1120,14.9,37.6,68,41.4 ± 13
CN(C)CCNc1cc(-c2ccccc2)nc2ccccc12,936,6.36,21.7,63.2,66.7 ± 1.5
Cn1c(=O)n(C)c2cc(CNCCNc3ccnc4cc(Cl)ccc34)ccc21,64.8,38.4,37.2,33.7,25.7 ± 41
Cc1ccc(Cn2c(N3CCC(C(=O)NCc4cccs4)CC3)nc3ccccc32)cc1,744,47.3,68,69.8,66.1 ± 3.6
Oc1c2c(nc3cc(-c4ccccc4)nn13)CCCC2,3790,0.423,6.47,21.9,26.5 ± 12
COc1ccc(CCN2CCC(CN(C)Cc3cnn(-c4ccccc4)c3)CC2)cc1,806,15.4,48.1,63.7,63.1 ± 4.5
CN(C)c1ccc(-c2nc3cc(N)ccc3[nH]2)cc1,3020,5.79,18.4,66.7,40.4 ± 8.4
O=C(CCc1ccccc1)c1ccccc1OCC(O)CN1CCCCC1 (stereo not drawn),912,19,44.6,73.3,66.1 ± 15
O=C(CCl)NCCOc1ccc(Cl)cc1Cl,717,12.1,24.7,43.1,66.2 ± 5.8
COc1cccc(Cn2c(Oc3ccccc3)nc3c2c(=O)n(C)c(=O)n3C)c1,516,23.6,27.1,45.9,72.4 ± 4.8
CCC(C)NCC(O)(c1ccc(Cl)cc1)c1ccc(Cl)cc1 (stereo not drawn),632,38.4,57,63.8,74.6 ± 8.3
CC(=O)c1ccc(NC(=O)CSc2nc(-c3ccccc3Cl)ns2)cc1,412,34,71.8,76.5,78.8 ± 6.6
CCC(=O)Nc1nnc(Cc2ccc(OC)c(OC)c2)s1,–,4.3,5.07,13.6,56.6 ± 7.6
COCCn1c(C)nc2ccccc2c1=O,1520,6.75,13.7,31.5,57.4 ± 3.5
CN(N=O)C1=C(NC2CCCCC2)C(=O)c2ccccc2C1=O,1520,33.3,57.9,65.4,57.2 ± 5.8
COc1ccc(C(C)=O)cc1N1C(=O)C2C(C1=O)C1(c3ccccc3)C(=O)C2(c2ccccc2)C(c2ccc(C)cc2)=C1c1ccc(C)cc1 (stereo not drawn),273,7.25,20.5,44.9,79.2 ± 1.3

Compound,EC50 growth inhibition [1] [nM],% inhibition of schizont-to-ring transition ([2]; 1 µM) [%],% inhibition of schizont-to-ring transition ([2]; 3 µM) [%],% inhibition of schizont-to-ring transition ([2]; 10 µM) [%],% growth inhibition [3] [%]
CC(C)(C)c1ccc2c(c1)CN(Cc1ccc(Cl)cc1)CO2,1120,16.8,49.9,66.2,34.1 ± 8.2
CCN(CC)CCNc1ccnc2cc(Cl)ccc12,21.1,73.3,75.3,77.3,45.2 ± 3.8
CCOC(=O)c1c(C)n(-c2ccc(Cl)cc2)c2ccc(OC(=O)C=Cc3ccccc3)cc12,1020,5,7.44,21.6,69.3 ± 5
O=C(Nc1cccc(-c2nc3ccccc3[nH]2)c1)c1cccc(NC(=O)c2ccco2)c1,6230,28.5,37.6,52,48.6 ± 19
CCOc1c(Cl)cc(CNCC(O)c2ccccc2)cc1OC (stereo not drawn),956,11.2,15.1,50.5,21.7 ± 8.2
O=C(Nc1ccc(-c2nc3cc(NC(=O)c4ccc(Cl)cc4)ccc3[nH]2)cc1)c1ccc(Cl)cc1,–,< 0,18.9,41.1,21.6 ± 3
CCCc1c(CC)c(=N)c2ccccc2n1C,6030,7.3,8.61,31,38.7 ± 9.2
COc1ccc(-c2cc(=O)oc3c4c(ccc23)OCN(Cc2ccc(F)cc2)C4)cc1,4110,< 0,10,48.3,63.1 ± 3.1
CCOc1cccc2sc(N(Cc3cccnc3)C(=O)C3CCCCC3)nc12,4280,35.3,38.9,56.6,29.9 ± 10
FC(F)(F)c1cccc(CNC2CCN(CCc3ccccc3)CC2)c1,201,23.2,60,69.5,45.5 ± 8.4
COC(=O)c1ccc(Cl)c2c1C1C=CCC1C(c1cccc3ccccc13)N2 (stereo not drawn),6220,8.04,15,46.6,55.6 ± 32
CCOC(=O)c1ccc2nc(-c3ccccc3)cc(O)c2c1,195,20.2,29.4,44.6,72.2 ± 6
COc1cc2cc(C(=O)Nc3ccccc3)c(N)nc2cc1OC,847,8.51,35.6,57.9,78.1 ± 1.2
CCN(CC)CCCNc1ccnc2cc3ccccc3cc12,312,19.5,41.2,42.7,29.2 ± 27
CCN(CC)CCNc1ncnc2c1[nH]c1ccc(Cl)cc12,230,16.1,52,66.5,23.3 ± 2.6
Fc1ccc2[nH]c3c(NCCCN4CCOCC4)ncnc3c2c1,466,3.9,32.7,53.9,34.5 ± 17
CC1CC(C)CN(C(=O)c2ccc(Cl)cc2Cl)C1 (stereo not drawn),1020,< 0,< 0,13.8,31.6 ± 5
COc1ccc(-c2nc(NC(=O)CS(=O)(=O)c3ccc(F)cc3)sc2C)cc1,405,9.86,32.3,43.6,69.4 ± 1.6
Cc1ccccc1OCCSc1nc2ccc(NC(=O)c3ccccc3)cc2s1,–,32,33,43.1,29.6 ± 11
CN1CCN(c2c3c(c(C#N)c4nc5ccccc5n24)CCC3)CC1,–,< 0,5.66,21.3,39.4 ± 4.5
COc1ccc(C(=O)NC(c2ccc(Cl)cc2Cl)c2cc(Cl)c3cccnc3c2O)cc1 (stereo not drawn),–,19.2,19.5,25.5,32.1 ± 5.2
CCOC(=O)C1=C(C)N=c2sc(=Cc3cc(Cl)ccc3O)c(=O)n2C1c1ccc(OC)cc1 (stereo not drawn),–,0.526,46.2,61.3,59.4 ± 6.4
COc1ccc(C2=C(c3ccc(OC)cc3)C3(c4ccccc4)C(=O)C2(c2ccccc2)C2C(=O)N(c4ccc(C)cc4)C(=O)C23)cc1 (stereo not drawn),–,< 0,< 0,24.9,41.5 ± 7.4
FC(F)(F)c1cccc(Nc2nc(-c3ccccc3)nc3ncccc23)c1,–,24.9,33.8,42.3,51.1 ± 1.4
COc1ccc2nc(N)nc(C)c2c1,–,2.26,6.22,17.5,41.7 ± 16
